Each compound was assayed against T1, human Cereblon WT GST-tagged protein (Homo sapiens, UniProt Q96SW2) (assay: CRBN binding, HTRF CEREBLON BINDING kit). Settings: CRBN binding, HTRF CEREBLON BINDING kit.
T1 construct: purchased CISBIO 64BDCRBNPEH
Method in brief: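 HTRF competition in which test compounds displace a Thalidomide-Re tracer from GST-tagged human Cereblon WT, detected with a GST Eu antibody. Incubation lasted 3 hours at room temperature, with emission read at 620 and 665 nm. Inhibition rate was derived from 665/620 ratios relative to blank and solvent control wells.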

T1 sequence (Q96SW2 whole entry): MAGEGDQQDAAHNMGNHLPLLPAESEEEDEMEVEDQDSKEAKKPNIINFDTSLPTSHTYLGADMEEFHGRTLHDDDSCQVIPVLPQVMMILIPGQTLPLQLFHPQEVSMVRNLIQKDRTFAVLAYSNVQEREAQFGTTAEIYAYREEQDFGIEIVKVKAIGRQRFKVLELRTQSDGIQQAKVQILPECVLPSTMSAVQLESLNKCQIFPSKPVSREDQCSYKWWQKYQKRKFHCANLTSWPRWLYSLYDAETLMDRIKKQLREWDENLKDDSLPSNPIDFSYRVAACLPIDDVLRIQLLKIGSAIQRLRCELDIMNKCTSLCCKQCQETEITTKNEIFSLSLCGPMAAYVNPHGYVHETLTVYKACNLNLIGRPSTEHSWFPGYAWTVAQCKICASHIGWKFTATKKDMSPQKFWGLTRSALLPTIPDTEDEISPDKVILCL

Row | IC50 | SMILES
1 | 500 to 1000 nM | CC(C)(O)c1cc2nn(C3CCN(Cc4ccc(N5CCC(=O)NC5=O)cc4)CC3)cc2cc1NC(=O)c1cccc(C(F)(F)F)n1 [GT-05754, N-(2-(1-(4-(2,4-dioxotetrahydropyrimidin-1(2H)-yl)benzyl)piperidin-4-yl)-6-(2-hydroxypropan-2-yl)-2H-indazol-5-yl)-6-(trifluoromethyl)picolinamide]
2 | 1000 to 1900 nM | COc1cc(N2CCC(N3CCN(Cc4cccc(NC5CCC(=O)NC5=O)c4)CC3)CC2)ccc1Nc1ncc(Cl)c(Nc2ccccc2P(C)(C)=O)n1 (stereo not drawn) [GT-07605, 3-((3-((4-(1-(4-((5-chloro-4-((2-(dimethylphosphoryl)phenyl)amino)pyrimidin-2-yl)amino)-3-methoxyphenyl)piperidin-4-yl)piperazin-1-yl)methyl)phenyl)amino)piperidine-2,6-dione]
3 | 1000 to 1900 nM | CCc1cc2c(cc1N1CCC(N3CCN(Cc4ccnc(C5CCC(=O)NC5=O)c4)CC3)CC1)C(C)(C)c1[nH]c3cc(C#N)ccc3c1C2=O (stereo not drawn) [GT-07704, 8-(4-(4-((2-(2,6-dioxopiperidin-3-yl)pyridin-4-yl)methyl)piperazin-1-yl)piperidin-1-yl)-9-ethyl-6,6-dimethyl-11-oxo-6,11-dihydro-5H-benzo[b]carbazole-3-carbonitrile]

Continued, compound first:

Row | SMILES | IC50
4 | Cc1ccc(-c2c(C)noc2C)cc1N(CC1CCN(Cc2ccc(N3CCC(=O)NC3=O)cc2)CC1)c1ccc(C2(C#N)CC2)cc1 [GT-04844, 1-(4-((5-(3,5-dimethylisoxazol-4-yl)-2-methylphenyl)((1-(4-(2,4-dioxotetrahydropyrimidin-1(2H)-yl)benzyl)piperidin-4-yl)methyl)amino)phenyl)cyclopropane-1-carbonitrile] | 500 to 1000 nM
5 | O=C1CCC(c2ccc(CN3CCN(c4ccc(-c5cc(F)c6c(c5)C(=O)N(C(C(=O)Nc5nccs5)c5ncn7c5CCC7)C6)cc4)CC3)cc2)C(=O)N1 (stereo not drawn) [GT-06163, 2-(6,7-dihydro-5H-pyrrolo[1,2-c]imidazol-1-yl)-2-(6-(4-(4-(4-(2,6-dioxopiperidin-3-yl)benzyl)piperazin-1-yl)phenyl)-4-fluoro-1-oxoisoindolin-2-yl)-N-(thiazol-2-yl)acetamide] | 500 to 1000 nM
6 | CCc1cc2c(cc1N1CCC(N3CCN(Cc4cncc(C5CCC(=O)NC5=O)c4)CC3)CC1)C(C)(C)c1[nH]c3cc(C#N)ccc3c1C2=O (stereo not drawn) [GT-07706, 8-(4-(4-((5-(2,6-dioxopiperidin-3-yl)pyridin-3-yl)methyl)piperazin-1-yl)piperidin-1-yl)-9-ethyl-6,6-dimethyl-11-oxo-6,11-dihydro-5H-benzo[b]carbazole-3-carbonitrile] | < 500 nM
7 | CN1CCN([C@@H]2CCCN(c3cnc(C(N)=O)c(Nc4ccc(C5CCN(Cc6cccc(NC7CCC(=O)NC7=O)c6)CC5)cc4)n3)C2)C1=O (stereo partly drawn) [GT-04804, 3-((4-(1-(3-((2,6-dioxopiperidin-3-yl)amino)benzyl)piperidin-4-yl)phenyl)amino)-5-((R)-3-(3-methyl-2-oxoimidazolidin-1-yl)piperidin-1-yl)pyrazine-2-carboxamide] | 1000 to 1900 nM
8 | CN(Cc1cccc(NC2CCC(=O)NC2=O)c1)C1CCN(c2ccc(-c3cc(F)c4c(c3)C(=O)N(C(C(=O)Nc3nccs3)c3ncn5c3CCC5)C4)cc2)CC1 (stereo not drawn) [GT-05284, 2-(6,7-dihydro-5H-pyrrolo[1,2-c]imidazol-1-yl)-2-(6-(4-(4-((3-((2,6-dioxopiperidin-3-yl)amino)benzyl)(methyl)amino)piperidin-1-yl)phenyl)-4-fluoro-1-oxoisoindolin-2-yl)-N-(thiazol-2-yl)acetamide] | < 500 nM
9 | Cc1nc2c(F)cc(-c3nc(Nc4ccc(N5CCC(N(C)Cc6ccc(N7CCC(=O)NC7=O)cc6)CC5)cn4)ncc3F)cc2n1C(C)C [GT-06838, 1-(4-(((1-(6-((5-fluoro-4-(4-fluoro-1-isopropyl-2-methyl-1H-benzo[d]imidazol-6-yl)pyrimidin-2-yl)amino)pyridin-3-yl)piperidin-4-yl)(methyl)amino)methyl)phenyl)dihydropyrimidine-2,4(1H,3H)-dione] | 500 to 1000 nM

— patent US20260274829A1, “NEW E3 UBIQUITIN LIGASE LIGAND, PROTEIN DEGRADATION AGENT AND USE THEREOF” (GLUETACS THERAPEUTICS (SHANGHAI) CO., LTD., priority 2023, published 2026)
